Laboratory results as given in PubChem BioAssay (NCI).
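Where inhibition never reached the appropriate level, the endpoint shown equals the highest concentration tested. Otherwise, values were interpolated linearly from a five-concentration, 48-hour dose response in 96-well plates. TGI is the concentration that stops growth completely.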

Legend:
Assay in all cases: NCI tumour cell line growth inhibition, 48 h
DLD-1 colon = tested on: DLD-1 colon
DMS 273 small cell lung = tested on: DMS 273 small cell lung
HOP-18 NSCLC = tested on: HOP-18 NSCLC
KM20L2 colon = tested on: KM20L2 colon
LXFL 529 NSCLC = tested on: LXFL 529 NSCLC
M19-MEL melanoma = tested on: M19-MEL melanoma
SNB-78 CNS = tested on: SNB-78 CNS
XF 498 CNS = tested on: XF 498 CNS
P388 leukemia = tested on: P388 leukemia
P388/ADR leukemia = tested on: P388/ADR leukemia
SN12K1 renal = tested on: SN12K1 renal

Measured: TGI

C[n+]1c2ccccc2c(NCC(=O)O)c2ccccc21
not listed: XF 498 CNS | P388 leukemia | P388/ADR leukemia | SN12K1 renal
> 100 µM: all other assays above

Cc1c2n(c(=O)[nH]c1=O)C1OC(CO)C(O2)C1N=[N+]=[N-] (stereo unspecified)
> 100 µM: DLD-1 colon | DMS 273 small cell lung | KM20L2 colon | LXFL 529 NSCLC | M19-MEL melanoma | SNB-78 CNS

O=C1N(Cl)C(=O)C(c2ccc(Cl)cc2)(c2ccc(Cl)cc2)N1Cl
not listed: SNB-78 CNS | P388 leukemia | P388/ADR leukemia | SN12K1 renal
> 100 µM: all other assays above

CC1(C)CCc2ccc(OCCC(=O)O)cc2O1
> 100 µM: DLD-1 colon | DMS 273 small cell lung | LXFL 529 NSCLC | M19-MEL melanoma | SNB-78 CNS

CCCCCCNC(=O)C(C)C1CCC2(C)C=CC(=O)C(C)=C2C1O (stereo unspecified)
not listed: LXFL 529 NSCLC | M19-MEL melanoma
> 100 µM: all other assays above

S=C1NCCN1
not listed: HOP-18 NSCLC | P388 leukemia | P388/ADR leukemia | SN12K1 renal
> 100 µM: all other assays above
